Assay results: patent publication US20250034110A1, “LPAR1 ANTAGONISTS AND USES THEREOF” (Pipeline Therapeutics, Inc., priority 2021, published 2025)
pIC50: −log10 of the molar value.

Biological target: human LPAR1 (Homo sapiens, UniProt Q92633)
Assay: In vitro functional assay of lysophosphatidic acid receptor 1 activity (calcium flux)
Assay type: cell-based
Details: B103 cells stably expressing human LPAR1; calcium flux (Fluo-4 NW) after lysophosphatidic acid (18:1) at EC80; 100 pM to 10 μM; read-out: LPAR1 IC50

human LPAR1, sequence (Q92633 whole entry): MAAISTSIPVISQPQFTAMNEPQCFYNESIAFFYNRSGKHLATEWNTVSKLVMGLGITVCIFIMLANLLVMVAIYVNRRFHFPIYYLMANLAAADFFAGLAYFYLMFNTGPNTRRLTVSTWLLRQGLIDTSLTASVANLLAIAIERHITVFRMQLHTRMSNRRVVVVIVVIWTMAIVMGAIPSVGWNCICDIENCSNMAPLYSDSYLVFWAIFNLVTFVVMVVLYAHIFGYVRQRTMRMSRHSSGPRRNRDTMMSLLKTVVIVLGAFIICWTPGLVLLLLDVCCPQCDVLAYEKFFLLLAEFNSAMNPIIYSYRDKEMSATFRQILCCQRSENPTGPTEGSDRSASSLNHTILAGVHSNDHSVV

SMILES	pIC50
CC(=O)N1CC2(CC(N(C(=O)Nc3ncc(Br)cc3OC(F)F)c3ccccc3C(C)C)C2)C1 [Example 123, 1-(2-acetyl-2-azaspiro[3.3]heptan-6-yl)-3-(5-bromo-3-(difluoromethoxy)pyridin-2-yl)-1-(2-isopropylphenyl)urea]	6.00 to 7.00
Cc1ccc(NC(=O)N(c2ccccc2C(C)C)C2(C)COC2)c(OC(F)F)n1 [Example 3, 3-(2-(difluoromethoxy)-6-methylpyridin-3-yl)-1-(2-isopropylphenyl)-1-(3-methyloxetan-3-yl)urea]	6.00 to 7.00
CC(C)c1ccccc1N(C(=O)Nc1cc(F)c(C2CC2)nc1OC(F)F)[C@H]1CC[C@H](C(=O)O)CC1 [Example 223]	7.00 to 8.00
COc1cc(C)ccc1NC(=O)N(c1ccccc1C(C)C)[C@H]1CC[C@H](C(=O)O)CC1 [Example 327, (1r,4r)-4-(1-(2-isopropylphenyl)-3-(2-methoxy-4-methylphenyl)ureido)cyclohexane-1-carboxylic acid]	> 8.00
Cc1ccc(NC(=O)N(c2ccccc2C(C)C)C2CC(O)(C(F)(F)F)C2)c(OC(F)F)n1 (stereo not drawn) [Example 196, 3-(2-(difluoromethoxy)-6-methylpyridin-3-yl)-1-(3-hydroxy-3-(trifluoromethyl)cyclobutyl)-1-(2-isopropylphenyl)urea]	< 6.00
CC(C)Oc1ccc(NC(=O)N(c2ccccc2C(C)C)[C@H]2CC[C@H](C(=O)O)CC2)c(OC(C)C)n1 [Example 252, (1r,4r)-4-(3-(2,6-diisopropoxypyridin-3-yl)-1-(2-isopropylphenyl)ureido)cyclohexane-1-carboxylic acid]	6.00 to 7.00
COc1ccc(NC(=O)N(c2ccccc2C(C)CO)[C@H]2CC[C@H](C(=O)O)CC2)c(OC(F)F)n1 (stereo partly drawn) [Example 282, (1r,4r)-4-(3-(2-(difluoromethoxy)-6-methoxypyridin-3-yl)-l-(2-(1-hydroxypropan-2-yl)phenyl)ureido)cyclohexane-1-carboxylic acid]	6.00 to 7.00
COc1ccc(NC(=O)N(c2ccccc2C(C)C)C2CN(C(C)=O)C2)c(OC(F)F)n1 [Example 41, 1-(1-acetylazetidin-3-yl)-3-(2-(difluoromethoxy)-6-methoxypyridin-3-yl)-1-(2-isopropylphenyl)urea]	6.00 to 7.00
Cc1ccc(NC(=O)N(CC23CCC(C(=O)O)(CC2)CC3)c2ccccc2C(C)C)c(OC(F)F)n1 [Example 167]	7.00 to 8.00
Cc1ccc(NC(=O)N(c2ccccc2C(C)C)[C@H]2CC[C@@H](C=O)CC2)c(OC(F)F)n1 [Example 244]	< 6.00
Cc1ccc(NC(=O)N(c2ccccc2C(C)C)[C@@H]2CCC(=O)N(C)C2)c(OC(F)F)n1 [Example 5, (R)-3-(2-(difluoromethoxy)-6-methylpyridin-3-yl)-1-(2-isopropylphenyl)-1-(1-methyl-6-oxopiperidin-3-yl)urea]	7.00 to 8.00
Cc1ccc(NC(=O)N(C[C@@H]2CCN2C(=O)OC(C)(C)C)c2ccccc2C(C)C)c(OC(F)F)n1 [Example 12, tert-butyl (S)-2-((3-(2-(difluoromethoxy)-6-methylpyridin-3-yl)-1-(2-isopropylphenyl)ureido)methyl)azetidine-1-carboxylate]	< 6.00
Cc1ccc(NC(=O)N(C[C@H]2CC[C@H](C(=O)O)CC2)c2ccccc2C(C)C)c(OC(F)F)n1 [Example 171]	7.00 to 8.00
Cc1ccc(NC(=O)N(c2ccccc2C(C)C)C2CN(S(C)(=O)=O)C2)c(OC(F)F)n1 [Example 74, 3-(2-(difluoromethoxy)-6-methylpyridin-3-yl)-1-(2-isopropylphenyl)-1-(1-(methylsulfonyl)azetidin-3-yl)urea]	6.00 to 7.00
Cc1ccc(NC(=O)N(c2ccccc2C(C)C)C2CC2)c(OC(F)F)n1 [Example 13, 1-cyclopropyl-3-(2-(difluoromethoxy)-6-methylpyridin-3-yl)-1-(2-isopropylphenyl)urea]	< 6.00
CC(=O)N(C(C)=O)[C@H]1CC[C@@H](N(C(=O)Nc2ccc(C)nc2OC(F)F)c2ccccc2C(C)C)CC1 [Example 264, N-acetyl-N-((1s,4s)-4-(3-(2-(difluoromethoxy)-6-methylpyridin-3-yl)-1-(2-isopropylphenyl)ureido)-cyclohexyl)acetamide]	6.00 to 7.00

SMILES	pIC50
COC(=O)C1CC(CN(C(=O)Nc2ccc(C)nc2OC(F)F)c2ccccc2C(C)C)C1 (stereo not drawn) [Example 169]	7.00 to 8.00
COc1ccc(NC(=O)N(c2ccccc2C(C)C)C2CN(C(C)=O)C2)c(OC)c1C [Example 119]	6.00 to 7.00
Cc1ccc(NC(=O)N(c2ccccc2C(C)C)[C@H]2C[C@H](C#N)C2)c(OC(F)F)n1 [Example 25, 1-((1r,3r)-3-cyanocyclobutyl)-3-(2-(difluoromethoxy)-6-methylpyridin-3-yl)-1-(2-isopropylphenyl)urea]	6.00 to 7.00
Cc1ccc(NC(=O)N(c2ccccc2C(C)C)C2CCC(F)(F)CC2)c(OC(F)F)n1 [Example 237, 1-(4,4-difluorocyclohexyl)-3-(2-(difluoromethoxy)-6-methylpyridin-3-yl)-1-(2-isopropylphenyl)urea]	6.00 to 7.00
CC(=O)N1CC(N(C(=O)Nc2ccc(C)nc2OC(F)F)c2ccccc2C(C)C)C1 [Example 67, 1-(1-acetylazetidin-3-yl)-3-(2-(difluoromethoxy)-6-methylpyridin-3-yl)-1-(2-isopropylphenyl)urea]	7.00 to 8.00
COc1cc(Cl)c(F)cc1NC(=O)N(c1ccccc1C(C)C)[C@H]1CC[C@H](C(=O)O)CC1 [Example 333, (1r,4r)-4-(3-(4-chloro-5-fluoro-2-methoxyphenyl)-1-(2-isopropylphenyl)ureido)cyclohexane-1-carboxylic acid]	> 8.00
Cc1ccc(NC(=O)N(c2ccccc2C(C)C)[C@H]2CC[C@@H](CC(=O)O)CC2)c(OC(F)F)n1 [Example 166, 2-((1s,4s)-4-(3-(2-(difluoromethoxy)-6-methylpyridin-3-yl)-1-(2-isopropylphenyl)ureido)cyclohexyl)acetic acid]	7.00 to 8.00
COc1ccc(NC(=O)N(c2ccccc2C(C)C)[C@H]2CC[C@H](OC)CC2)c(OC(F)F)n1 [Example 40, 3-(2-(difluoromethoxy)-6-methoxypyridin-3-yl)-1-(2-isopropylphenyl)-1-((1r,4r)-4-methoxycyclohexyl)urea]	7.00 to 8.00
Cc1ccc(NC(=O)N(c2ccccc2C(C)C)[C@@H]2CC[C@@H](C(=O)O)C2)c(OC(F)F)n1 [Example 303]	> 8.00
CC(=O)N1CC[C@H](N(C(=O)Nc2ccc(C)nc2OC(F)F)c2ccccc2C(C)C)C1 [Example 68, (S)-1-(1-acetylpyrrolidin-3-yl)-3-(2-(difluoromethoxy)-6-methylpyridin-3-yl)-1-(2-isopropylphenyl)urea]	7.00 to 8.00
COc1ccc(NC(=O)N(c2ccccc2C(C)C)C2CN(C(C)=O)C2)c(OC)n1 [Example 118]	6.00 to 7.00
Cc1ccc(NC(=O)N(c2ccccc2C(C)C)C2CCC3(CC2)COC3)c(OC(F)F)n1 [Example 236, 3-(2-(difluoromethoxy)-6-methylpyridin-3-yl)-1-(2-isopropylphenyl)-1-(2-oxaspiro[3.5]nonan-7-yl)urea]	6.00 to 7.00
CC(=O)N1CC2(CC(N(C(=O)Nc3ccc(C)cc3OC(F)F)c3ccccc3C(C)C)C2)C1 [Example 125, 1-(2-acetyl-2-azaspiro[3.3]heptan-6-yl)-3-(2-(difluoromethoxy)-4-methylphenyl)-1-(2-isopropylphenyl)urea]	7.00 to 8.00
Cc1ccc(NC(=O)N(c2ccccc2C(C)C)C2CCC(NS(C)(=O)=O)CC2)c(OC(F)F)n1 (stereo not drawn) [Example 269, N-(4-(3-(2-(difluoromethoxy)-6-methylpyridin-3-yl)-1-(2-isopropylphenyl)ureido)cyclohexyl)methanesulfonamide]	7.00 to 8.00
Cc1ccc(NC(=O)N(c2ccccc2C(C)C)[C@H]2CCC[C@@H](C(=O)O)C2)c(OC(F)F)n1 [Example 285]	> 8.00
COc1ccc(NC(=O)N(c2ccccc2C(C)C)[C@H]2CC[C@](C)(C(=O)O)CC2)c(OC(F)F)n1 [Example 340]	7.00 to 8.00

Same assay, conditions: LPAR1 IC50

SMILES	pIC50
COc1ccc(NC(=O)N(c2ccccc2C(C)C)C2CCN(C(C)=O)CC2)c(OCC(F)F)n1 [Example 106]	7.00 to 8.00
CC(=O)N1CCC(N(C(=O)Nc2ccc(C)nc2OC(F)F)c2cccc(C)c2)CC1 [Example 33, 1-(1-acetylpiperidin-4-yl)-3-(2-(difluoromethoxy)-6-methylpyridin-3-yl)-1-(m-tolyl)urea]	< 6.00
CC(=O)N1CCC(N(C(=O)Nc2ccc(C)nc2OC(F)F)c2cnccc2C(C)C)CC1 [Example 36, 1-(1-acetylpiperidin-4-yl)-3-(2-(difluoromethoxy)-6-methylpyridin-3-yl)-1-(4-isopropylpyridin-3-yl)urea]	6.00 to 7.00
CC(=O)N1CCC(N(C(=O)Nc2cnc(C)cn2)c2ccccc2C(C)C)CC1 [Example 131]	6.00 to 7.00
CC(=O)N1CCC(N(C(=O)Nc2cccnc2OC(F)F)c2ccccc2C(C)C)CC1 [Example 91]	7.00 to 8.00
COC(C)c1ccccc1N(C(=O)Nc1ccc(C)nc1OC(F)F)C1CCN(C(C)=O)CC1 (stereo not drawn) [Example 35, 1-(1-acetylpiperidin-4-yl)-3-(2-(difluoromethoxy)-6-methylpyridin-3-yl)-1-(2-(1-methoxyethyl)phenyl)urea]	6.00 to 7.00
COc1ccc(NC(=O)N(c2ccccc2C(C)C)C2CC3CC2CN3C(C)=O)c(OC(F)F)n1 (stereo not drawn) [Example 57, 1-(2-acetyl-2-azabicyclo[2.2.1]heptan-5-yl)-3-(2-(difluoromethoxy)-6-methoxypyridin-3-yl)-1-(2-isopropylphenyl)urea]	6.00 to 7.00
CCOc1ccc(NC(=O)N(c2ccccc2C(C)C)C2CCN(C(C)=O)CC2)c(OC(F)F)n1 [Example 107]	7.00 to 8.00
CC(=O)N1CCC(N(C(=O)Nc2ncc(Br)nc2OC(F)F)c2ccccc2C(C)C)CC1 [Example 184, 1-(1-acetylpiperidin-4-yl)-3-(5-bromo-3-(difluoromethoxy)pyrazin-2-yl)-1-(2-isopropylphenyl)urea]	6.00 to 7.00
COc1ccc(NC(=O)N(c2ccccc2C(C)C)C2CCN(C(=O)CC#N)CC2)c(OC(F)F)n1 [Example 85, 1-(1-(2-cyanoacetyl)piperidin-4-yl)-3-(2-(difluoromethoxy)-6-methoxypyridin-3-yl)-1-(2-isopropylphenyl)urea]	7.00 to 8.00
